Assay results from article PMC6445550 (Analytical biochemistry, 2014).

Biological target: T1, Erf2 (Saccharomyces cerevisiae, UniProt Q06551)
T1 sequence (Q06551 1-359): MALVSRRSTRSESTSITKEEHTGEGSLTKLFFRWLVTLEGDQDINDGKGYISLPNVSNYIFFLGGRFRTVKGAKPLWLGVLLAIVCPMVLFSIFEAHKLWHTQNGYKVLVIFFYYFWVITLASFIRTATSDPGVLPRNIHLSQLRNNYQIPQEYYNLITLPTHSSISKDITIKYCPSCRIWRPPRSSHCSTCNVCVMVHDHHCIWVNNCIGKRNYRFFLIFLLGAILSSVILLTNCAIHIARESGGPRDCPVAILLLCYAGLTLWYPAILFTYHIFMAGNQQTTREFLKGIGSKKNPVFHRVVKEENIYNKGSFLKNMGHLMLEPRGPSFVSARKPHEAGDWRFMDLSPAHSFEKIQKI
Experiment: fluorescence coupled autopalmitoylation assay with purified complex
Format: biochemical

Q: With `CCCCCCCCCCCCCCC(Br)C(=O)O` (stereo not shown) [2-BP, 2-bromopalmitate] as the compound, how does the IC50 read?
A: ~100 µM
